The text below walks through data of PMC2848328 (The Journal of biological chemistry, 2006).

For this experiment, the target named is T1, AMAN-2 (F58H1.1; Golgi α-mannosidase II) (Caenorhabditis elegans, UniProt Q2PJ74).
T1 sequence (Q2PJ74 125-1145): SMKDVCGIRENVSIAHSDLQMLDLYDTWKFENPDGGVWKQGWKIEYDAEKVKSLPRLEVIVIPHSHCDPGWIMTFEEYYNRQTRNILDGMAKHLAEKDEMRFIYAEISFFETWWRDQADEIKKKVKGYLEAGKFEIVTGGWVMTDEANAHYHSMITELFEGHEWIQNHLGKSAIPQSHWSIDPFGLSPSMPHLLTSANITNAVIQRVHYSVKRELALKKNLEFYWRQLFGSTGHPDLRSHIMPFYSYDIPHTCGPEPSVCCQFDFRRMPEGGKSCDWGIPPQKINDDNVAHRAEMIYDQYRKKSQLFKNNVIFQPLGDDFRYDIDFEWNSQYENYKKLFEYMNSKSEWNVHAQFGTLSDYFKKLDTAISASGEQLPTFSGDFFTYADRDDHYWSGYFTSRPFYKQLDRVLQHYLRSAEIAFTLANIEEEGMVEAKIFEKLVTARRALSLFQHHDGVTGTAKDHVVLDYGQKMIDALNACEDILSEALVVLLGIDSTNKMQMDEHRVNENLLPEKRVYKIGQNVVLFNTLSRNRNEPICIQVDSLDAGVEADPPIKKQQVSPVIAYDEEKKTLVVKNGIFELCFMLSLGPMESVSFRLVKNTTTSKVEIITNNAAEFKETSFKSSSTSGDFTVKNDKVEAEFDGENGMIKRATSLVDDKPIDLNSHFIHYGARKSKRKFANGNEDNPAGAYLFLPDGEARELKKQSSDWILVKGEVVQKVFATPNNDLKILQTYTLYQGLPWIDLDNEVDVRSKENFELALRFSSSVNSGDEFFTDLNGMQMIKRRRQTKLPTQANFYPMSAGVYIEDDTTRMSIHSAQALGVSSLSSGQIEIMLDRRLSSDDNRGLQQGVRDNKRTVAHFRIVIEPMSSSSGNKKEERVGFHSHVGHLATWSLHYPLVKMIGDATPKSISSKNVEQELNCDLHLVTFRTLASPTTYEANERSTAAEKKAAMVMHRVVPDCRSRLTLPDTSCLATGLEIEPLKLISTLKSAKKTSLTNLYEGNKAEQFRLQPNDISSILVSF
Description: inhibition of p-nitrophenyl-α-mannoside hydrolysis, A405. The following applies: read-out: % inhibition at 1 mM. It counts as biochemical.

In general, inhibition refers to how much of the control response was suppressed.

With `OC[C@H]1NC[C@@H](O)[C@@H](O)[C@@H]1O` [deoxymannojirimycin], the inhibition at 1000 µM was about 45%.
